Assay results reported in ChEMBL document CHEMBL5523681, “Lysosome-targeted Aza-BODIPY photosensitizers for anti-cancer photodynamic therapy” (Bioorg Med Chem, 2024).

Tested on: not listed separately
Experiment: Stability of compound in emulsified PBS buffer under dark condition
Format: physicochemical
Conditions: not given

Row | SMILES | Stability
1 | CCN(CC)Cc1ccc(C2=C(I)C(c3ccc(OC)cc3)=[N+]3C2=Nc2c(-c4ccccc4)c4c(n2[B-]3(F)F)-c2ccc(OC)cc2CC4)cc1 | Stable
2 | CCN(CC)Cc1ccc(C2=C(I)C(c3ccc(OC)cc3)=[N+]3C2=Nc2c(-c4ccc(CN(CC)CC)cc4)c(I)c(-c4ccc(OC)cc4)n2[B-]3(F)F)cc1 | Unstable

Tested on: not listed separately
Experiment: Dark toxicity in human HeLa cells incubated for 3 hrs by CCK-8 assay
Format: cell-based
Conditions: not given

Row | SMILES | IC50 at 3 h
3 | CCN(CC)Cc1ccc(C2=C(I)C(c3ccc(OC)cc3)=[N+]3C2=Nc2c(-c4ccccc4)c4c(n2[B-]3(F)F)-c2ccc(OC)cc2CC4)cc1 | > 50000 nM
4 | CCN(CC)Cc1ccc(C2=C(I)C(c3ccc(OC)cc3)=[N+]3C2=Nc2c(-c4ccc(CN(CC)CC)cc4)c(I)c(-c4ccc(OC)cc4)n2[B-]3(F)F)cc1 | 26100 nM

Tested on: HeLa
Experiment: Cytotoxicity against human HeLa cells preincubated with compound for 3 hrs followed by 81 J/cm2 light irradiation and measured after 24 hrs by CCK8 assay
Format: functional, cell-based
Conditions: light or radiation study

Row | SMILES | IC50
5 | CCN(CC)Cc1ccc(C2=C(I)C(c3ccc(OC)cc3)=[N+]3C2=Nc2c(-c4ccccc4)c4c(n2[B-]3(F)F)-c2ccc(OC)cc2CC4)cc1 | 6.7 nM
6 | CCN(CC)Cc1ccc(C2=C(I)C(c3ccc(OC)cc3)=[N+]3C2=Nc2c(-c4ccc(CN(CC)CC)cc4)c(I)c(-c4ccc(OC)cc4)n2[B-]3(F)F)cc1 | 51.1 nM

Tested on: not listed separately
Experiment: Ratio of singlet oxygen quantum yield in DMF at pH 5.2 in presence of HCl to singlet oxygen quantum yield in DMF at pH 7
Format: functional
Conditions: not given

Row | SMILES | Ratio
7 | CCN(CC)Cc1ccc(C2=C(I)C(c3ccc(OC)cc3)=[N+]3C2=Nc2c(-c4ccccc4)c4c(n2[B-]3(F)F)-c2ccc(OC)cc2CC4)cc1 | 1.16
8 | CCN(CC)Cc1ccc(C2=C(I)C(c3ccc(OC)cc3)=[N+]3C2=Nc2c(-c4ccc(CN(CC)CC)cc4)c(I)c(-c4ccc(OC)cc4)n2[B-]3(F)F)cc1 | 1.23

Tested on: not listed separately
Experiment: Stability of compound in CH3CN under dark condition
Format: physicochemical
Conditions: not given

Row | SMILES | Stability
9 | CCN(CC)Cc1ccc(C2=C(I)C(c3ccc(OC)cc3)=[N+]3C2=Nc2c(-c4ccccc4)c4c(n2[B-]3(F)F)-c2ccc(OC)cc2CC4)cc1 | Stable
10 | CCN(CC)Cc1ccc(C2=C(I)C(c3ccc(OC)cc3)=[N+]3C2=Nc2c(-c4ccc(CN(CC)CC)cc4)c(I)c(-c4ccc(OC)cc4)n2[B-]3(F)F)cc1 | Unstable

Tested on: HepG2
Experiment: Cytotoxicity against human HepG2 cells preincubated with compound for 3 hrs followed by 81 J/cm2 light irradiation and measured after 24 hrs by CCK8 assay
Format: functional, cell-based
Conditions: HepG2, light or radiation study

Row | SMILES | IC50
11 | CCN(CC)Cc1ccc(C2=C(I)C(c3ccc(OC)cc3)=[N+]3C2=Nc2c(-c4ccccc4)c4c(n2[B-]3(F)F)-c2ccc(OC)cc2CC4)cc1 | 14.1 nM
12 | CCN(CC)Cc1ccc(C2=C(I)C(c3ccc(OC)cc3)=[N+]3C2=Nc2c(-c4ccc(CN(CC)CC)cc4)c(I)c(-c4ccc(OC)cc4)n2[B-]3(F)F)cc1 | 73.5 nM

Tested on: not listed separately
Experiment: Photosensitizing ability of the compound in PBS at pH 7.4 assessed as singlet oxygen production by measuring relative degradation rate of DPBF at 411 nm under photoirradiation with 90 mW/cm2 light by absorbance based assay
Format: functional
Conditions: not given

Row | SMILES | Activity
13 | CCN(CC)Cc1ccc(C2=C(I)C(c3ccc(OC)cc3)=[N+]3C2=Nc2c(-c4ccccc4)c4c(n2[B-]3(F)F)-c2ccc(OC)cc2CC4)cc1 | 0.84
14 | CCN(CC)Cc1ccc(C2=C(I)C(c3ccc(OC)cc3)=[N+]3C2=Nc2c(-c4ccc(CN(CC)CC)cc4)c(I)c(-c4ccc(OC)cc4)n2[B-]3(F)F)cc1 | 0.91

Tested on: not listed separately
Experiment: Photosensitizing ability of the compound in DMF at pH 7 assessed as singlet oxygen quantum yield
Format: functional
Conditions: not given

Row | SMILES | Activity
15 | CCN(CC)Cc1ccc(C2=C(I)C(c3ccc(OC)cc3)=[N+]3C2=Nc2c(-c4ccccc4)c4c(n2[B-]3(F)F)-c2ccc(OC)cc2CC4)cc1 | 0.44
16 | CCN(CC)Cc1ccc(C2=C(I)C(c3ccc(OC)cc3)=[N+]3C2=Nc2c(-c4ccc(CN(CC)CC)cc4)c(I)c(-c4ccc(OC)cc4)n2[B-]3(F)F)cc1 | 0.61

Tested on: not listed separately
Experiment: Photostability of compound in emulsified PBS buffer in presence of […] light irradiation measured upto 10 mins by absorption based assay
Format: physicochemical
Conditions: not given

Row | SMILES | Stability
17 | CCN(CC)Cc1ccc(C2=C(I)C(c3ccc(OC)cc3)=[N+]3C2=Nc2c(-c4ccccc4)c4c(n2[B-]3(F)F)-c2ccc(OC)cc2CC4)cc1 | Stable
18 | CCN(CC)Cc1ccc(C2=C(I)C(c3ccc(OC)cc3)=[N+]3C2=Nc2c(-c4ccc(CN(CC)CC)cc4)c(I)c(-c4ccc(OC)cc4)n2[B-]3(F)F)cc1 | Unstable

Tested on: B16-F10
Experiment: Cytotoxicity against mouse B16-F10 cells preincubated with compound for 3 hrs followed by 81 J/cm2 light irradiation and measured after 24 hrs by CCK8 assay
Format: functional, cell-based
Conditions: B16-F10, light or radiation study

Row | SMILES | IC50
19 | CCN(CC)Cc1ccc(C2=C(I)C(c3ccc(OC)cc3)=[N+]3C2=Nc2c(-c4ccccc4)c4c(n2[B-]3(F)F)-c2ccc(OC)cc2CC4)cc1 | 15 nM
20 | CCN(CC)Cc1ccc(C2=C(I)C(c3ccc(OC)cc3)=[N+]3C2=Nc2c(-c4ccc(CN(CC)CC)cc4)c(I)c(-c4ccc(OC)cc4)n2[B-]3(F)F)cc1 | 73.5 nM

Tested on: not listed separately
Experiment: Dark toxicity in human HepG2 cells incubated for 3 hrs by CCK-8 assay
Format: cell-based
Conditions: not given

Row | SMILES | IC50 at 3 h
21 | CCN(CC)Cc1ccc(C2=C(I)C(c3ccc(OC)cc3)=[N+]3C2=Nc2c(-c4ccccc4)c4c(n2[B-]3(F)F)-c2ccc(OC)cc2CC4)cc1 | > 50000 nM
22 | CCN(CC)Cc1ccc(C2=C(I)C(c3ccc(OC)cc3)=[N+]3C2=Nc2c(-c4ccc(CN(CC)CC)cc4)c(I)c(-c4ccc(OC)cc4)n2[B-]3(F)F)cc1 | 28900 nM

Tested on: not listed separately
Experiment: Photosensitizing ability of the compound in DMF at pH 5.2 assessed as singlet oxygen quantum yield in presence of HCl
Format: functional
Conditions: not given

Row | SMILES | Activity
23 | CCN(CC)Cc1ccc(C2=C(I)C(c3ccc(OC)cc3)=[N+]3C2=Nc2c(-c4ccccc4)c4c(n2[B-]3(F)F)-c2ccc(OC)cc2CC4)cc1 | 0.51
24 | CCN(CC)Cc1ccc(C2=C(I)C(c3ccc(OC)cc3)=[N+]3C2=Nc2c(-c4ccc(CN(CC)CC)cc4)c(I)c(-c4ccc(OC)cc4)n2[B-]3(F)F)cc1 | 0.75

Tested on: not listed separately
Experiment: Ratio of relative degradation rate of DPBF in PBS at pH 5.2 in presence of HCl to relative degradation rate of DPBF in PBS at pH 7
Format: physicochemical
Conditions: buffer

Row | SMILES | Ratio
25 | CCN(CC)Cc1ccc(C2=C(I)C(c3ccc(OC)cc3)=[N+]3C2=Nc2c(-c4ccccc4)c4c(n2[B-]3(F)F)-c2ccc(OC)cc2CC4)cc1 | 1.44
26 | CCN(CC)Cc1ccc(C2=C(I)C(c3ccc(OC)cc3)=[N+]3C2=Nc2c(-c4ccc(CN(CC)CC)cc4)c(I)c(-c4ccc(OC)cc4)n2[B-]3(F)F)cc1 | 1.2

Tested on: not listed separately
Experiment: Photosensitizing ability of the compound in PBS at pH 5.2 in presence of HCl assessed as singlet oxygen production by measuring relative degradation rate of DPBF at 411 nm under photoirradiation with 90 mW/cm2 light by absorbance based assay
Format: functional
Conditions: not given

Row | SMILES | Activity
27 | CCN(CC)Cc1ccc(C2=C(I)C(c3ccc(OC)cc3)=[N+]3C2=Nc2c(-c4ccccc4)c4c(n2[B-]3(F)F)-c2ccc(OC)cc2CC4)cc1 | 1.21
28 | CCN(CC)Cc1ccc(C2=C(I)C(c3ccc(OC)cc3)=[N+]3C2=Nc2c(-c4ccc(CN(CC)CC)cc4)c(I)c(-c4ccc(OC)cc4)n2[B-]3(F)F)cc1 | 1.09

Tested on: not listed separately
Experiment: Dark toxicity in mouse B16-F10 cells incubated for 3 hrs by CCK-8 assay
Format: cell-based
Conditions: not given

Row | SMILES | IC50 at 3 h
29 | CCN(CC)Cc1ccc(C2=C(I)C(c3ccc(OC)cc3)=[N+]3C2=Nc2c(-c4ccccc4)c4c(n2[B-]3(F)F)-c2ccc(OC)cc2CC4)cc1 | > 50000 nM
30 | CCN(CC)Cc1ccc(C2=C(I)C(c3ccc(OC)cc3)=[N+]3C2=Nc2c(-c4ccc(CN(CC)CC)cc4)c(I)c(-c4ccc(OC)cc4)n2[B-]3(F)F)cc1 | 49600 nM

Tested on: not listed separately
Experiment: Stability of compound in DMF under dark condition
Format: physicochemical
Conditions: not given

Row | SMILES | Stability
31 | CCN(CC)Cc1ccc(C2=C(I)C(c3ccc(OC)cc3)=[N+]3C2=Nc2c(-c4ccccc4)c4c(n2[B-]3(F)F)-c2ccc(OC)cc2CC4)cc1 | Stable
32 | CCN(CC)Cc1ccc(C2=C(I)C(c3ccc(OC)cc3)=[N+]3C2=Nc2c(-c4ccc(CN(CC)CC)cc4)c(I)c(-c4ccc(OC)cc4)n2[B-]3(F)F)cc1 | Unstable
